Measurements taken from patent US20260263442A1, “METHOD FOR TREATING L-DOPA-INDUCED DYSKINESIA USING BEFIRADOL” (Neurolixis, Inc., priority 2023, published 2026).
Values joined by “and” are separate entries in the source; they are usually repeats but may differ in a detail not shown here. Equal entries are not always repeated. Where two headings read alike, the source gives them in different places.

Columns and labels:
[1] = test system: sleepiness in PD patients with LID; assay: Epworth Sleepiness Scale (ESS), Phase 2a study; format: in vivo, human
Text: The ESS is a self-administered questionnaire with 8 questions. Respondents are asked to rate, on a 4-point scale (0-3), their usual chances of dozing off or falling asleep while engaged in 8 different activities. The ESS score (the sum of 8 item scores, 0-3) can range from 0 to 24. Ratings are based on the previous month, or in the case of this study, the intervening period since the previous clinic visit (about 3 weeks).

5-HT1A receptors = molecular target: T1, 5-HT1A receptors (Homo sapiens, UniProt P08908); settings: cited from earlier work
T1 sequence (P08908 1-422): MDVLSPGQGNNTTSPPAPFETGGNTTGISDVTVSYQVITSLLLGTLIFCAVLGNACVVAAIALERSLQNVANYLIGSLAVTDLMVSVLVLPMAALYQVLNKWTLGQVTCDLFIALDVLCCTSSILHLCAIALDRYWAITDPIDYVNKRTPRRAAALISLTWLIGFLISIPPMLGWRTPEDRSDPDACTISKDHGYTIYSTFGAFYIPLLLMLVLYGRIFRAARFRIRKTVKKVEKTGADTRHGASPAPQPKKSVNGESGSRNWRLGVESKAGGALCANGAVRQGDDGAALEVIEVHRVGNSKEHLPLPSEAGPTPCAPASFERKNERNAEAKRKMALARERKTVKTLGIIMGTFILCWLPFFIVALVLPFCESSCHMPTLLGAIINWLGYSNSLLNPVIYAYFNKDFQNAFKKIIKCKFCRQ

[2] = test system: overall PD symptoms in PD patients with LID; format: in vivo, human
Text: The CGI-C is a clinician-oriented scale that assesses the total improvement in the patient's condition relative to the clinical global impression of severity (CGI-S) scale conducted at baseline. The CGI-C rates the patient's condition from 0 to 7, with a rating of 0 indicating “no assessment”, a rating of 1 indicating “very much better”, and a rating of 7 indicating “very much worse”.

[3] = test system: models of pain, forced swim test, spinal cord injury model; settings: animal experiments; cited from earlier work
[4] = test system: Parkinson's disease symptoms in PD patients with LID; assay: Unified Parkinson's Disease Rating Scale (UPDRS), Phase 2a study; settings: for UPDRS Part 3, Baseline / UPDRS Part 3, Δ / UPDRS Total, Baseline / UPDRS Total, Δ: on NLX-112
Procedure: Because the level of dyskinesia experienced by patients can vary over time, they were given 150% (i.e., 1.5×) of their regular L-DOPA dose (up to a maximum of 250 mg) as a challenge 30 min before each dyskinesia assessment to improve comparability between patients and between visits. […] PD symptoms were assessed by Unified Parkinson's Disease Rating Scale (UPDRS) 30-90 min after the 150% L-DOPA challenge (i.e., when the patient was ON). Changes from baseline are shown for total score (i.e., Parts 1 to 4) and individual scores for each Part, 1, 2, 3 and 4.
Patients were challenged with 150% of their standard L-DOPA dose (maximum L-DOPA dose 250 mg) 30 minutes prior to the first UDysRS assessment. • Change from baseline in UDysRS total score at Day 28 and Day 42, after a 150% L-DOPA dose challenge. • Change from baseline in total objective score (Parts III, IV) of the UDysRS at Day 28 and Day 42, after a 150% L-DOPA dose challenge. • Change from baseline in ON Time Without Troublesome Dyskinesia (ON Without Dyskinesia plus ON With Non-troublesome Dyskinesia) based on a PD Home Dyskinesia Diary. • Change from baseline in Unified Parkinson's Disease Rating Scale (UPDRS) scores (Part III, motor examination). • Change from baseline in UPDRS combined scores (Parts I, II, III and IV). • Clinical Global Impression of Change (CGI-C) in overall PD symptoms • Change from baseline in dyskinesia scores measured by the Kinesia 360 (Great Lakes Neurotechnologies, Inc) wearable dyskinesia assessment system.
The UPDRS consists of 4 parts: • Part I assesses non-motor experiences of daily living, such as cognitive impairment and depressed mood. • Part II assesses motor experiences of daily living, such as speech and eating tasks. • Part III is a motor examination conducted by the clinician, including assessments of symptoms such as rigidity and tremor. • Part IV is an assessment of motor complications, such as time spent with dyskinesia and functional impact of dyskinesias.
Each item in the UPDRS is scored from 0 to 4, and the individual scores are summed to give a total score that indicates the severity of the disease, with a score of 0 indicating no disability and a score of 199 being the most severe (indicating total disability).
Change from baseline in UPDRS combined scores (Parts I, II, III and IV) to Visit 6 (Day 28) and Visit 7 (Day 42) respectively would be summarized using descriptive statistics. […] The same analysis would be done for UPDRS Part III only.

MPTP-treated marmosets = settings: cited from earlier work
[5] = both, human, in vivo
[6] = test system: pain in PD patients with LID; assay: King's Parkinson's Disease Pain Scale (KPPS), Phase 2a study; format: in vivo, human
Text: The KPPS is a rater-interview-based scale conducted with the patient and caregiver (if available). It is a 14-item scale covering 7 domains of pain: • Musculoskeletal pain • Chronic pain • Fluctuation-related pain • Nocturnal pain • Orofacial pain • Edema/swelling; discoloration • Radicular pain Each item is scored by severity (0-3; none to very severe) multiplied by frequency (0-4; never to all the time), for an item sub score of 0-12, resulting in a total score from 0 to 168. Ratings are based on the previous month, or in the case of this study, the intervening period since the previous clinic visit (about 3 weeks). Treatment effects would be analyzed as change from baseline for total score and for individual pain domains.

6-OH-DA lesioned rats = settings: cited from earlier work
[7] = Baseline, Per Protocol Set, n = 15
[8] = Baseline, mean (SD), per-protocol set n = 15
[9] = Day 28, mean (SD), per-protocol set n = 15
[10] = Day 42, mean (SD), per-protocol set n = 15
[11] = Patient A, amantadine treatment 1 year
[12] = Patient B, amantadine treatment 2 years
[13] = Patient C, amantadine treatment 7 years
[14] = Patient D, amantadine treatment 11 years
[15] = Patient E, amantadine treatment 6 years
[16] = Visit 2 Baseline, Per protocol analysis set, n 15
[17] = Visit 6 Clinic Efficacy Visit (Day 28), Per protocol analysis set, n 15
[18] = Visit 6 Clinic Efficacy Visit, Full analysis set, n=15
[19] = Visit 7 Clinic Efficacy Visit (Day 42), Per protocol analysis set, n 15
[20] = Visit 7 Clinic Efficacy Visit, Full analysis set, n=15
[21] = Visit 9 Follow-up Clinic Visit, Full analysis set, n=15
[22] = Visit 9 Follow-up Clinic Visit, Per protocol analysis set, n 15

Cc1ccc(CNCC2(F)CCN(C(=O)c3ccc(F)c(Cl)c3)CC2)nc1 [NLX-112]
ESS, Baseline, mean (S.D.) [1, 7]: 8.3 (5.2) | Sleepiness (ESS), effect ([1]; Days 28 or 42): no consistent statistically significant effect | ESS, Δ D28, mean (S.D.) ([1]; change from baseline at day 28 (end of up-titration period), Per Protocol Set, n = 15): −1.1 (3.3) | ESS, Δ D42, mean (S.D.) ([1]; change from baseline at day 42 (end of stable dosing period), Per Protocol Set, n = 15): −0.9 (3.4) | 5-HT1A receptor agonist profile (5-HT1A receptors): exceptional selectivity for 5-HT1A receptors and full agonist properties | 5-HT1A receptor agonist profile (5-HT1A receptors; listed as Befiradol): selective and potent | Cellular signaling (biased agonist profile) (5-HT1A receptors; via G-proteins): preferentially activates specific cellular signaling cascades | CGI-C, proportion of patients improved (minimally, much or very much improved) ([2]; day 28): 33% | CGI-C, proportion of patients improved (minimally, much or very much improved) ([2]; day 42): 53% | Activity in models of pain, forced swim test and urinary function in a spinal cord injury model [3]: pronounced activity | UPDRS Part 1 [4, 8]: 1.0 (1.0) | UPDRS Part 4 [4, 8]: 8.0 (2.0) | UPDRS Part 3, change from baseline [4, 9]: −3.7 points and −3.7 (4.7)**# points | UPDRS Total (Parts 1 to 4), change from baseline [4, 9]: −6.5 points and −6.5 (7.6)*** points | UPDRS Part 3, change from baseline [4, 10]: −3.7 points and −3.7 (4.6)** points | UPDRS Total (Parts 1 to 4), change from baseline [4, 10]: −5.7 points and −5.7 (6.0)** points | UPDRS Part 3, Baseline [4, 11]: 8 | UPDRS Part 3, Δ [4, 11]: −4 | UPDRS Total, Baseline [4, 11]: 22 | UPDRS Total, Δ [4, 11]: −5 | UPDRS Part 3, Baseline [4, 12]: 22 | UPDRS Part 3, Δ [4, 12]: −9 | UPDRS Total, Baseline [4, 12]: 44 | UPDRS Total, Δ [4, 12]: −15 | UPDRS Part 3, Baseline [4, 13]: 28 | UPDRS Part 3, Δ [4, 13]: −13 | UPDRS Total, Baseline [4, 13]: 51 | UPDRS Total, Δ [4, 13]: −11 | UPDRS Part 3, Baseline [4, 14]: 11 | UPDRS Part 3, Δ [4, 14]: +3 | UPDRS Total, Baseline [4, 14]: 26 | UPDRS Total, Δ [4, 14]: −5 | UPDRS Part 3, Baseline [4, 15]: 15 | UPDRS Part 3, Δ [4, 15]: +2 | UPDRS Total, Baseline [4, 15]: 30 | UPDRS Total, Δ [4, 15]: +3 | UPDRS Part 3 Motor Total, collected value, Median (Min, Max) ([4]; Visit 2 Baseline, Full analysis set, n=18): 16.0 (3, 39) | UPDRS Part 3 Motor Total, collected value, Median (Min, Max) [4, 16]: 17.0 (3, 39) | UPDRS Total Score, Collected value, Mean (SD) [4, 16]: 37.0 (13.3) | UPDRS Total Score, Collected value, Median (Min, Max) [4, 16]: 36.0 (17, 66) | UPDRS Part 3 Motor Total, absolute change from baseline, Mean (SD) [4, 17]: −3.7 (4.7) | UPDRS Part 3 Motor Total, absolute change from baseline, Median (Min, Max) [4, 17]: −4.0 (−12, 5) | UPDRS Part 3 Motor Total, collected value, Median (Min, Max) [4, 17]: 14.0 (2, 30) | UPDRS Total Score, Absolute change from baseline, Mean (SD) [4, 17]: −6.5 (7.6) | UPDRS Total Score, Absolute change from baseline, Median (Min, Max) [4, 17]: −5.0 (−23, 6) | UPDRS Total Score, Collected value, Median (Min, Max) [4, 17]: 29.0 (13, 54) | UPDRS Part 3 Motor Total, absolute change from baseline, Mean (SD) [4, 18]: −3.7 (4.7) | UPDRS Part 3 Motor Total, absolute change from baseline, Median (Min, Max) [4, 18]: −4.0 (−12, 5) | UPDRS Part 3 Motor Total, collected value, Median (Min, Max) [4, 18]: 14.0 (2, 30) | UPDRS Total Score (all Parts), absolute change from baseline, Mean (SD) [4, 18]: −6.5 (7.6) | UPDRS Total Score (all Parts), absolute change from baseline, Median (Min, Max) [4, 18]: −5.0 (−23, 6) | UPDRS Total Score (all Parts), collected value, Median (Min, Max) [4, 18]: 29.0 (13, 54) | UPDRS Part 3 Motor Total, absolute change from baseline, Mean (SD) [4, 19]: −3.7 (4.6) | UPDRS Part 3 Motor Total, absolute change from baseline, Median (Min, Max) [4, 19]: −4.0 (−13, 3) | UPDRS Part 3 Motor Total, collected value, Median (Min, Max) [4, 19]: 14.0 (1, 35) | UPDRS Total Score, Absolute change from baseline, Mean (SD) [4, 19]: −5.7 (6.0) | UPDRS Total Score, Absolute change from baseline, Median (Min, Max) [4, 19]: −5.0 (−15, 4) | UPDRS Total Score, Collected value, Median (Min, Max) [4, 19]: 30.0 (15, 63) | UPDRS Part 3 Motor Total, absolute change from baseline, Mean (SD) [4, 20]: −3.7 (4.6) | UPDRS Part 3 Motor Total, absolute change from baseline, Median (Min, Max) [4, 20]: −4.0 (−13, 3) | UPDRS Part 3 Motor Total, collected value, Median (Min, Max) [4, 20]: 14.0 (1, 35) | UPDRS Total Score (all Parts), absolute change from baseline, Mean (SD) [4, 20]: −5.7 (6.0) | UPDRS Total Score (all Parts), absolute change from baseline, Median (Min, Max) [4, 20]: −5.0 (−15, 4) | UPDRS Total Score (all Parts), collected value, Median (Min, Max) [4, 20]: 30.0 (15, 63) | UPDRS Part 3 Motor Total, absolute change from baseline, Mean (SD) [4, 21]: −2.7 (5.5) | UPDRS Part 3 Motor Total, absolute change from baseline, Median (Min, Max) [4, 21]: −2.0 (−15, 4) | UPDRS Part 3 Motor Total, collected value, Median (Min, Max) [4, 21]: 13.0 (2, 32) | UPDRS Total Score (all Parts), absolute change from baseline, Mean (SD) [4, 21]: −4.4 (9.0) | UPDRS Total Score (all Parts), absolute change from baseline, Median (Min, Max) [4, 21]: −3.0 (−20, 7) | UPDRS Total Score (all Parts), collected value, Median (Min, Max) [4, 21]: 31.0 (15, 56) | UPDRS Part 3 Motor Total, absolute change from baseline, Mean (SD) [4, 22]: −2.7 (5.5) | UPDRS Part 3 Motor Total, absolute change from baseline, Median (Min, Max) [4, 22]: −2.0 (−15, 4) | UPDRS Part 3 Motor Total, collected value, Median (Min, Max) [4, 22]: 13.0 (2, 32) | UPDRS Total Score, Absolute change from baseline, Mean (SD) [4, 22]: −4.4 (9.0) | UPDRS Total Score, Absolute change from baseline, Median (Min, Max) [4, 22]: −3.0 (−20, 7) | UPDRS Total Score, Collected value, Median (Min, Max) [4, 22]: 31.0 (15, 56) | Reduction in UPDRS Part 3 scores, more than placebo ([4]; day 42): 3.9 points | Amantadine co-treated NLX-112 patients with decreases in UPDRS total score and UPDRS Part 3 ([4]; five patients also receiving amantadine): three | Effect on the beneficial anti-parkinsonian effects of L-DOPA ([4]; in vivo): did not worsen, and actually enhanced, the beneficial effects of L-DOPA | Amantadine co-treated NLX-112 patients with numerical reductions in PD symptoms (UPDRS) ([4]; patients on NLX-112 and amantadine): 4 of the 5 | Disability scores (MPTP-treated marmosets): reduces disability scores | Befiradol Cmax in female subjects, higher than males by [5]: 20%-40% | KPPS, Baseline, mean (S.D.) [6, 7]: 16.0 (9.9) | KPPS total score, change from baseline ([6]; Day 42): statistically significant improvement | KPPS, Δ D28, mean (S.D.) ([6]; change from baseline at day 28 (end of up-titration period), Per Protocol Set, n = 15, **p < 0.01 vs baseline (LMM)): −4.6 (7.5)** | KPPS, Δ D42, mean (S.D.) ([6]; change from baseline at day 42 (end of stable dosing period), Per Protocol Set, n = 15, **p < 0.01 vs baseline (LMM)): −4.8 (7.8)** | Rotation behavior (6-OH-DA lesioned rats; 6-OH-DA lesioned rats): increases rotation behavior | Dopamine surge following L-DOPA administration (6-OH-DA lesioned rats; parkinsonian rat model of LID): blunted | Striatal 5-HT release (6-OH-DA lesioned rats; parkinsonian rat model of LID): inhibited striatal 5-HT release | Antidyskinetic efficacy against L-DOPA-induced dyskinesia on chronic administration (6-OH-DA lesioned rats; rat, 2-week treatment period): did maintain its antidyskinetic efficacy
